Like-named read-outs stand apart in the source and are kept apart here. Numbered stars: 1 amine (or outer) side, 2 acyl side, 3 side chain; on linkers, the order of the positions; unused ones are H or OH. Square brackets hold non-standard residues; d marks the D form. Side chains are listed from the residue outwards. Peptide text beside a SMILES is read from it. * marks the point of attachment. C18 diacid = O=C(O)CCCCCCCCCCCCCCCCC(=O)*; γGlu = O=C(O)[C@H](CCC(=O)[*:2])N[*:1]; Stearoyl = CCCCCCCCCCCCCCCCCC(=O)*; AEEA = NCCOCCOCC(=O)O; Aib = CC(C)(N)C(=O)O
Experiments:
human GIP R = biological target: T1, human GIP R (Homo sapiens, UniProt P48546); experiment: Human GIP receptor (GIP-R) activity assay, cAMP induction (AlphaScreen) in HEK293 cells; type: cell-based; conditions: average EC50, cAMP in HEK293 cells expressing human GIP R, read-out: GIP R (EC50 in nM)
T1 construct: expressed in transfected cells
T1 sequence (P48546 22-466): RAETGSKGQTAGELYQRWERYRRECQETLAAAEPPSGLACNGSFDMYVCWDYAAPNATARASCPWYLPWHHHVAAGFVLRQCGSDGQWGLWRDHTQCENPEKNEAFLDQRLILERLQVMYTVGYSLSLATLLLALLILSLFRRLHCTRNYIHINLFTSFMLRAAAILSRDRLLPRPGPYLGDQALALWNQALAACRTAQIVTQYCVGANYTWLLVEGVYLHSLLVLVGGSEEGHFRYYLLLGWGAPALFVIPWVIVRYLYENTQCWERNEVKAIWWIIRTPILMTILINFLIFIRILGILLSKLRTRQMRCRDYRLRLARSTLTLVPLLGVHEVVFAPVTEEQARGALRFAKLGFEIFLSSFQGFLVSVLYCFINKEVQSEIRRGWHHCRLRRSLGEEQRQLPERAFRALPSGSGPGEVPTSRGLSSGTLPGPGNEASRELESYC
Protocol: (§1) Briefly, HEK293 cells expressing the human GIP R, GLP-1 R or GCG R (stable cell lines generated through transfection of the cDNA for human GIP R, GLP-1 R or GCG R and selection of stable clones) were seeded at 30,000 cells/well in 96-well microtiter plates coated with 0.01% poly-L-lysine, and grown for 1 day in culture in 200 μl growth medium (DMEM, 10% FCS, Penicillin (100 IU/ml), Streptomycin (100 μg/ml)). On the day of analysis, growth medium was removed and the cells were washed once with 150 μl Tyrode's buffer (Tyrode's Salts (9.6 g/I), 10 mM HEPES, pH 7.4). […] The Assay buffer was removed and cells are lysed in 80 μl Lysis buffer (0.1% w/v BSA, 5 mM HEPES, 0.3% v/v Tween-20) per well. From each well 10 μl of lysed cells were transferred to a 384-well plate and mixed with 15 μl bead-mix (1 Unit/15 μl anti-cAMP Acceptor Beads, 1 Unit/15 μl Donor Beads, and 1 Unit/15 μl Biotinylated cAMP in Assay Buffer). The plates were mixed and incubated in the dark for an hour at room temperature before measuring using an Envision™ plate reader (Perkin-Elmer).
(§2) The resulting cAMP curves were plotted as absolute cAMP concentrations (nM) over log (test compound concentration) and analyzed using the curve fitting program XLfit.
(§3) Parameters calculated to describe both the potency as well as the agonistic activity of each test compound on the receptors were:
(§4) EC50, a concentration resulting in a half-maximal elevation of cAMP levels, reflecting the potency of the test compound.

human GLP-1 R = biological target: T2, human GLP-1 R (Homo sapiens, UniProt P43220); experiment: Human GLP-1 receptor (GLP-1-R) activity assay, cAMP induction (AlphaScreen) in HEK293 cells; type: cell-based; conditions: average EC50, cAMP in HEK293 cells expressing human GLP-1 R, read-out: GLP1 R (EC50 in nM)
T2 construct: expressed in transfected cells
T2 sequence (P43220 24-463): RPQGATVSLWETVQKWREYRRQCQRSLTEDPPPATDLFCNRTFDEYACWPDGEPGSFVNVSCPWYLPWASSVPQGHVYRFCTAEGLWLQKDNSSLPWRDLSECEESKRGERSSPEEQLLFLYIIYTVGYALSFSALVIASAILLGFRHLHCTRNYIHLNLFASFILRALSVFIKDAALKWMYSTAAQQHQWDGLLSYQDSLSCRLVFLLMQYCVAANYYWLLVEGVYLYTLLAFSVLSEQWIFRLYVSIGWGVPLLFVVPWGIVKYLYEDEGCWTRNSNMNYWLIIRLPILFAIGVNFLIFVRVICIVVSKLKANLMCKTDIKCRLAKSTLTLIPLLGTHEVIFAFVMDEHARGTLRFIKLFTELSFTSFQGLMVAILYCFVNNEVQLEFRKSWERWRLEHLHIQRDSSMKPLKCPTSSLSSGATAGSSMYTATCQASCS
Protocol: as §1, §2, §3, §4

human GCG R = human GCG R (Homo sapiens, UniProt P47871); conditions: read-out: GCG R (EC50 in nM); Table 2; average EC50; cAMP in HEK293 cells expressing human GCG R
Sequence of human GCG R (P47871 26-477): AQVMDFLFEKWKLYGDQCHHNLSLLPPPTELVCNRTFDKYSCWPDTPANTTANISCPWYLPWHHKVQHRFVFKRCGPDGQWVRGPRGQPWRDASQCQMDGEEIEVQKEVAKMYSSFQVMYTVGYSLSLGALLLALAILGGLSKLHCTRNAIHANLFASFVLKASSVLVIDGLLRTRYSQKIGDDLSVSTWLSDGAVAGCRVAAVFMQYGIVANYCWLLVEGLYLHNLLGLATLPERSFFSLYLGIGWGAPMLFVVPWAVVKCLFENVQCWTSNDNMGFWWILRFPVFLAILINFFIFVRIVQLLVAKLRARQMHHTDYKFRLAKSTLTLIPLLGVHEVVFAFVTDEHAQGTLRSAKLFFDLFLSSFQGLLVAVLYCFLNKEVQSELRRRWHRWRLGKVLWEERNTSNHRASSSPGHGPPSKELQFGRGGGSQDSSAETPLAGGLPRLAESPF
Protocol: as §1, §2
Parameters calculated to describe both the potency as well as the agonistic activity of each test compound on the receptors were: […]

[1] = Table 2b (most comprehensive data)

With `CC[C@H](C)[C@H](NC(=O)[C@H](CO)NC(=O)[C@H](Cc1ccc(O)cc1)NC(=O)[C@H](CC(=O)O)NC(=O)[C@H](CO)NC(=O)[C@@H](NC(=O)[C@H](Cc1ccccc1)NC(=O)[C@@H](NC(=O)CNC(=O)[C@H](CCC(N)=O)NC(=O)C(C)(C)NC(=O)[C@@H](N)Cc1ccc(O)cc1)[C@@H](C)O)[C@@H](C)O)C(=O)N[C@@H](Cc1ccc(O)cc1)C(=O)N[C@@H](CC(C)C)C(=O)N[C@@H](CC(=O)O)C(=O)N[C@@H](CCCCN)C(=O)N[C@@H](CCCCNC(=O)COCCOCCNC(=O)COCCOCCNC(=O)CC[C@H](NC(=O)CCCCCCCCCCCCCCCCC(=O)O)C(=O)O)C(=O)N[C@@H](C)C(=O)N[C@@H](CCC(N)=O)C(=O)N[C@@H](CCCNC(=N)N)C(=O)N[C@@H](C)C(=O)N[C@@H](Cc1ccccc1)C(=O)N[C@H](C(=O)N[C@@H](CCC(=O)O)C(=O)N[C@@H](Cc1c[nH]c2ccccc12)C(=O)N[C@@H](CC(C)C)C(=O)N[C@@H](CC(C)C)C(=O)N[C@@H](C)C(=O)N[C@@H](CCC(N)=O)C(=O)NCC(=O)N1CCC[C@H]1C(=O)N[C@@H](CO)C(=O)N[C@@H](CO)C(=O)NCC(=O)N[C@@H](C)C(=O)N1CCC[C@H]1C(=O)N1CCC[C@H]1C(=O)N1CCC[C@H]1C(=O)N[C@@H](CO)C(N)=O)C(C)C` [Compound 33] (H-Y[Aib]QGTFTSDYSIYLDKK([AEEA-AEEA-γGlu-C18 diacid])AQRAFVEWLLAQGPSSGAPPPS-NH2) the EC50 (human GIP R; [1]) was 0.0099 nM and the EC50 (human GLP-1 R; [1]) was 0.0093 nM.

For `CC[C@H](C)[C@H](NC(=O)[C@H](CO)NC(=O)[C@H](Cc1ccc(O)cc1)NC(=O)[C@H](CC(=O)O)NC(=O)[C@H](CO)NC(=O)[C@@H](NC(=O)[C@H](Cc1ccccc1)NC(=O)[C@@H](NC(=O)CNC(=O)[C@H](CCC(N)=O)NC(=O)C(C)(C)NC(=O)[C@@H](N)Cc1ccc(O)cc1)[C@@H](C)O)[C@@H](C)O)C(=O)N[C@@H](Cc1ccc(O)cc1)C(=O)N[C@@H](CC(C)C)C(=O)N[C@@H](CCC(=O)O)C(=O)N[C@@H](CCCCN)C(=O)N[C@@H](CCCCN)C(=O)N[C@@H](C)C(=O)N[C@@H](C)C(=O)N[C@@H](Cc1c[nH]cn1)C(=O)N[C@@H](CC(=O)O)C(=O)N[C@@H](Cc1ccccc1)C(=O)N[C@H](C(=O)N[C@@H](CCC(=O)O)C(=O)N[C@@H](Cc1c[nH]c2ccccc12)C(=O)N[C@@H](CC(C)C)C(=O)N[C@@H](CC(C)C)C(=O)N[C@@H](CO)C(=O)N[C@@H](C)C(N)=O)C(C)C` [Compound 14] (HELM PEPTIDE1{Y.[Aib].Q.G.T.F.T.S.D.Y.S.I.Y.L.E.K.K.A.A.H.D.F.V.E.W.L.L.S.A.[am]}$$$$V2.0), the EC50 (human GIP R; Table 2) was 0.06 nM, the EC50 (human GLP-1 R; Table 2) was 0.013 nM and the EC50 (human GCG R) was 0.1 nM.

`CCCCCCCCCCCCCCCCCC(=O)N[C@@H](CCC(=O)NCCOCCOCC(=O)NCCOCCOCC(=O)NCCCC[C@H](NC(=O)[C@H](CCCCN)NC(=O)[C@H](CC(=O)O)NC(=O)[C@H](CC(C)C)NC(=O)[C@H](Cc1ccc(O)cc1)NC(=O)[C@@H](NC(=O)[C@H](CO)NC(=O)[C@H](Cc1ccc(O)cc1)NC(=O)[C@H](CC(=O)O)NC(=O)[C@H](CO)NC(=O)[C@@H](NC(=O)[C@H](Cc1ccccc1)NC(=O)[C@@H](NC(=O)CNC(=O)[C@H](CCC(N)=O)NC(=O)C(C)(C)NC(=O)[C@@H](N)Cc1ccc(O)cc1)[C@@H](C)O)[C@@H](C)O)[C@@H](C)CC)C(=O)N[C@@H](C)C(=O)N[C@@H](CCC(N)=O)C(=O)N[C@@H](CCCNC(=N)N)C(=O)N[C@@H](C)C(=O)N[C@@H](Cc1ccccc1)C(=O)N[C@H](C(=O)N[C@@H](CCC(=O)O)C(=O)N[C@@H](Cc1c[nH]c2ccccc12)C(=O)N[C@@H](CC(C)C)C(=O)N[C@@H](CC(C)C)C(=O)N[C@@H](C)C(=O)N[C@@H](CCC(N)=O)C(=O)NCC(=O)N1CCC[C@H]1C(=O)N[C@@H](CO)C(=O)N[C@@H](CO)C(=O)NCC(=O)N[C@@H](C)C(=O)N1CCC[C@H]1C(=O)N1CCC[C@H]1C(=O)N1CCC[C@H]1C(=O)N[C@@H](CO)C(N)=O)C(C)C)C(=O)O` [Compound 35] (H-Y[Aib]QGTFTSDYSIYLDKK([AEEA-AEEA-γGlu-Stearoyl])AQRAFVEWLLAQGPSSGAPPPS-NH2) was tested, and the EC50 (human GIP R; [1]) was 0.01 nM and the EC50 (human GLP-1 R; [1]) was 0.012 nM.

`CC[C@H](C)[C@H](NC(=O)[C@H](CO)NC(=O)[C@H](Cc1ccc(O)cc1)NC(=O)[C@H](CC(=O)O)NC(=O)[C@H](CO)NC(=O)[C@@H](NC(=O)[C@H](Cc1ccccc1)NC(=O)[C@@H](NC(=O)CNC(=O)[C@H](CCC(N)=O)NC(=O)C(C)(C)NC(=O)[C@@H](N)Cc1ccc(O)cc1)[C@@H](C)O)[C@@H](C)O)C(=O)N[C@@H](Cc1ccc(O)cc1)C(=O)N[C@@H](CC(C)C)C(=O)N[C@@H](CCC(=O)O)C(=O)N[C@@H](CCCCN)C(=O)N[C@@H](CCCCN)C(=O)N[C@@H](C)C(=O)N[C@@H](C)C(=O)N[C@@H](Cc1c[nH]cn1)C(=O)N[C@@H](CC(=O)O)C(=O)N[C@@H](Cc1ccccc1)C(=O)N[C@H](C(=O)N[C@@H](CCC(=O)O)C(=O)N[C@@H](Cc1c[nH]c2ccccc12)C(=O)N[C@@H](CC(C)C)C(=O)N[C@@H](CC(C)C)C(=O)N[C@@H](CO)C(=O)N[C@@H](C)C(N)=O)C(C)C` [Compound 15] (HELM PEPTIDE1{Y.[Aib].Q.G.T.F.T.S.D.Y.S.I.Y.L.E.K.K.A.A.H.D.F.V.E.W.L.L.S.A.[am]}$$$$V2.0) gave an EC50 (human GIP R; Table 2) of 0.025 nM, an EC50 (human GLP-1 R; Table 2) of 0.016 nM and an EC50 (human GCG R) of 0.058 nM.

Source: US20210363213A1, “GLUCAGON-GLP-1-GIP TRIPLE AGONIST COMPOUNDS” (priority 2013, published 2021)
